In the supplement of paper PMC11061612:

Legend:
Assay in all cases: Bliss excess, mean over the matrix (fraction); higher = more synergy
CS1 (Chondrosarcoma) = test system: CS1 (Chondrosarcoma)
In short: (§1)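 Cell lines grown in DMEM/F12 or RPMI with 10% FBS were plated in 1536-well plates and held 24 hours at 37°C, 5% CO2 before 72 hours of exposure to two-drug dose matrices, with DMSO typically at 0.2%. CellTiter-Glo 2.0 luminescence gave viability, which was converted to inhibition. Vehicle wells were set to 0 and blank wells to 1. Combination Emax is the second-highest inhibition in the matrix, and Bliss excess is the observed combination effect minus the expected EA + EB − EA·EB, where EA and EB are the single-agent effects.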

[1] = test system: D-283MED (Other Solid Carcinomas)
In short: as §1

D-392MG (Glioblastoma) = test system: D-392MG (Glioblastoma)
In short: as §1

H4 (Low Grade Glioma) = test system: H4 (Low Grade Glioma)
In short: as §1

[2] = test system: HCC-827 (Lung Adenocarcinoma)
In short: as §1

[3] = test system: HCC1143 (Breast Carcinoma)
In short: as §1

HCC38 (Breast Carcinoma) = test system: HCC38 (Breast Carcinoma)
In short: as §1

[4] = test system: HLE (Hepatocellular Carcinoma)
In short: as §1

HuO9 (Osteosarcoma) = test system: HuO9 (Osteosarcoma)
In short: as §1

MCF7 (Breast Carcinoma) = test system: MCF7 (Breast Carcinoma)
In short: as §1

[5] = test system: MES-SA (Other Solid Carcinomas)
In short: as §1

MSTO-211H (Mesothelioma) = test system: MSTO-211H (Mesothelioma)
In short: as §1

[6] = test system: P31-FUJ (Acute Myeloid Leukemia)
In short: as §1

[7] = test system: SK-LMS-1 (Other Solid Carcinomas)
In short: as §1

[8] = test system: SKN-3 (Head and Neck Carcinoma)
In short: as §1

[9] = test system: SNG-M (Endometrial Carcinoma)
In short: as §1

[10] = test system: SW48 (Colorectal Carcinoma)
In short: as §1

[11] = test system: SW948 (Colorectal Carcinoma)
In short: as §1

Saos-2 (Osteosarcoma) = test system: Saos-2 (Osteosarcoma)
In short: as §1

[12] = test system: TYK-nu (Ovarian Carcinoma)
In short: as §1

Row | SMILES | Bliss excess (CS1 (Chondrosarcoma)) | Bliss excess [1] | Bliss excess (D-392MG (Glioblastoma)) | Bliss excess (H4 (Low Grade Glioma)) | Bliss excess [2] | Bliss excess [3] | Bliss excess (HCC38 (Breast Carcinoma)) | Bliss excess [4] | Bliss excess (HuO9 (Osteosarcoma)) | Bliss excess (MCF7 (Breast Carcinoma)) | Bliss excess [5] | Bliss excess (MSTO-211H (Mesothelioma)) | Bliss excess [6] | Bliss excess [7] | Bliss excess [8] | Bliss excess [9] | Bliss excess [10] | Bliss excess [11] | Bliss excess (Saos-2 (Osteosarcoma)) | Bliss excess [12]
1 | COc1cccc(OCCCN)c1-c1cc(Nc2cnc(C#N)cn2)n[nH]1 [Prexasertib] + C[C@@H]1COCCN1C2=NC(=NC(=C2)C3(CC3)[S@](=N)(=O)C)C4=C5C=CNC5=NC=C4 [AZD6738] (first compound max 1 µM, 7x7, partner max 10 µM) | -0.0111 | 0.0042 | 0.0355 | 0.0311 | -0.0234 | -0.026 | -0.0029 | 0 | -0.0638 | 0.017 | -0.0765 | -0.0197 | 0.0092 | -0.029 | -0.0347 | 0.0329 | 0.0015 | 0.0334 | -0.0739 | -0.0604
2 | COc1cccc(OCCCN)c1-c1cc(Nc2cnc(C#N)cn2)n[nH]1 [Prexasertib] + Cc1cc2ncnn2cc1Nc1ncc2c(n1)n(C1CCOCC1)c(=O)n2C [AZD7648] (first compound max 1 µM, 7x7, partner max 10 µM) | -0.0285 | -0.0193 | -0.0254 | -0.0369 | 0.0186 | -0.0318 | -0.0592 | -0.064 | -0.105 | 0.0688 | -0.02 | -0.0059 | -0.0255 | 0.0078 | -0.0564 | -0.0284 | -0.0344 | -0.0155 | -0.0591 | -0.072
3 | COc1cccc(OCCCN)c1-c1cc(Nc2cnc(C#N)cn2)n[nH]1 [Prexasertib] + O=C(c1cc(Cc2n[nH]c(=O)c3ccccc23)ccc1F)N1CCN(C(=O)C2CC2)CC1 [Olaparib] (first compound max 1 µM, 7x7, partner max 10 µM) | -0.0635 | -0.0232 | -0.0698 | -0.0306 | -0.0262 | -0.18 | -0.0641 | -0.0458 | 0.0553 | -0.0236 | -0.0561 | -0.0597 | -0.0141 | -0.0676 | -0.0113 | -0.124 | -0.0795 | -0.0118 | -0.0123 | -0.0934
4 | COc1cc2c(cc1OCCCCCOc1cc3c(cc1OC)C(=O)N1C=C(C)C[C@H]1C=N3)N=C[C@@H]1CC(C)=CN1C2=O [SG3199] + O=C(c1cc(Cc2n[nH]c(=O)c3ccccc23)ccc1F)N1CCN(C(=O)C2CC2)CC1 [Olaparib] (first compound max 0.001 µM, 7x7, partner max 10 µM) | -0.0451 | -0.0347 | -0.0623 | -0.0406 | -0.0194 | -0.0216 | -0.0356 | -0.0323 | -0.0273 | -0.0444 | 0.0626 | -0.0175 | -0.0645 | -0.0375 | -0.0276 | -0.0222 | -0.0321 | -0.0092 | -0.0277 | -0.046
5 | CCc1c2c(nc3ccc(O)cc13)-c1cc3c(c(=O)n1C2)COC(=O)[C@]3(O)CC [SN-38] + CN(C)CCCOc1ccc(-c2ccc3ncc4c(c3c2)n(C2CCOCC2)c(=O)n4C)cn1 [AZD0156] (first compound max 0.3 µM, 7x7, partner max 1 µM) | -0.0016 | -0.024 | 0.0957 | -0.0255 | 0.0556 | 0.0405 | -0.0453 | -0.0434 | 0.0365 | -0.0388 | -0.0316 | 0.0527 | 0.0647 | 0.0274 | -0.0209 | -0.0353 | 0.098 | 0.237 | -0.0279 | -0.0182
6 | C[C@@H](c1ccc2nccn2c1)n1nnc2ncc(-c3cnn(C)c3)nc21 [Savolitinib] + CC1(C)CCC(CN2CCN(c3ccc(C(=O)NS(=O)(=O)c4ccc(NCC5CCOCC5)c([N+](=O)[O-])c4)c(Oc4cnc5[nH]ccc5c4)c3)CC2)=C(c2ccc(Cl)cc2)C1 [Venetoclax] (first compound max 1 µM, 7x7, partner max 1 µM) | -0.0056 | -0.0144 | -0.0454 | -0.0399 | -0.0293 | -0.0361 | -0.0111 | -0.0232 | -0.0531 | -0.042 | -0.0736 | -0.0501 | -0.102 | 0.0121 | -0.0543 | -0.0421 | -0.0289 | -0.0488 | -0.0259 | -0.0478
7 | C[C@@H](c1ccc2nccn2c1)n1nnc2ncc(-c3cnn(C)c3)nc21 [Savolitinib] + Cc1c2c(nn1C)CSCc1cc(n(C)n1)CSc1cc(c3ccccc3c1)OCCCc1c(C(=O)O)n(C)c3c-2c(Cl)ccc13 [AZD5991] (first compound max 1 µM, 7x7, partner max 1 µM) | -0.031 | 0.0649 | -0.001 | 0.0076 | -0.008 | 0.0108 | -0.0279 | -0.0053 | -0.0416 | -0.0242 | -0.0465 | -0.0337 | -0.049 | 0.0027 | -0.0758 | 0.0124 | -0.0232 | -0.0305 | -0.0405 | -0.0393
8 | Cn1cnc2c(F)c(Nc3ccc(Br)cc3Cl)c(C(=O)NOCCO)cc21 [Selumetinib] + C=CCn1c(=O)c2cnc(Nc3ccc(N4CCN(C)CC4)cc3)nc2n1-c1cccc(C(C)(C)O)n1 [AZD1775] (first compound max 10 µM, partner max 1 µM) | -0.0195 | -0.0295 | -0.0367 | -0.0797 | -0.026 | -0.0112 | -0.0768 | -0.0358 | -0.0824 | -0.079 | -0.0289 | -0.0323 | -0.0064 | 0.0059 | 0.0226 | -0.0444 | 0.0116 | -0.0258 | -0.0072 | -0.0404
9 | Cn1cnc2c(F)c(Nc3ccc(Br)cc3Cl)c(C(=O)NOCCO)cc21 [Selumetinib] + CC(C)n1c(=O)n(C)c2cnc3cc(F)c(-c4ccc(OCCCN5CCCCC5)nc4)cc3c21 [AZD1390] (first compound max 10 µM, 7x7, partner max 0.3 µM) | -0.0172 | -0.0123 | -0.02 | -0.0503 | -0.0306 | 0.013 | -0.0306 | -0.0325 | 0.0143 | -0.0452 | -0.0335 | -0.0367 | 0.0398 | -0.0429 | -0.0318 | -0.0348 | -0.0561 | -0.0174 | -0.0577 | -0.0523
10 | Cn1cnc2c(F)c(Nc3ccc(Br)cc3Cl)c(C(=O)NOCCO)cc21 [Selumetinib] + CCN(CCO)CCCOc1ccc2c(Nc3cc(CC(=O)Nc4cccc(F)c4)[nH]n3)ncnc2c1 [AZD2811] (first compound max 10 µM, 7x7, partner max 1 µM) | -0.0043 | -0.0022 | -0.0304 | -0.0091 | -0.0711 | 0.0298 | -0.0748 | -0.0029 | -0.0201 | -0.0309 | -0.0248 | -0.0137 | -0.0136 | -0.0047 | -0.0166 | -0.0706 | -0.0168 | 0.0022 | 0.0334 | -0.0169
11 | Cn1cnc2c(F)c(Nc3ccc(Br)cc3Cl)c(C(=O)NOCCO)cc21 [Selumetinib] + C[C@@H]1COCCN1C2=NC(=NC(=C2)C3(CC3)[S@](=N)(=O)C)C4=C5C=CNC5=NC=C4 [AZD6738] (first compound max 10 µM, 7x7, partner max 10 µM) | -0.0706 | -0.0564 | 0.0013 | -0.0067 | -0.0172 | -0.0207 | -0.0706 | -0.0665 | 0.0042 | -0.0558 | 0.0021 | -0.0453 | -0.0802 | 0.0453 | 0.0257 | -0.0561 | -0.017 | -0.0114 | -0.0349 | 0.089
12 | CC(=O)Nc1cccc(-n2c(=O)n(C3CC3)c(=O)c3c(Nc4ccc(I)cc4F)n(C)c(=O)c(C)c32)c1 [Trametinib] + Cc1nc(-c2cn3c(n2)-c2ccc(-c4cnn(C(C)(C)C(N)=O)c4)cc2OCC3)n(C(C)C)n1 [Taselisib] (first compound max 1 µM, 7x7, partner max 10 µM) | 0.0483 | 0.119 | 0.137 | 0.132 | 0.0731 | 0.0615 | 0.0219 | -0.0291 | 0.0587 | 0.0979 | 0.062 | 0.122 | 0.182 | 0.0854 | 0.11 | 0.102 | 0.178 | 0.0126 | 0.0402 | 0.138
13 | CC1(C)CCC(CN2CCN(c3ccc(C(=O)NS(=O)(=O)c4ccc(NCC5CCOCC5)c([N+](=O)[O-])c4)c(Oc4cnc5[nH]ccc5c4)c3)CC2)=C(c2ccc(Cl)cc2)C1 [Venetoclax] + C1CN(CCC1(C(=O)N[C@@H](CCO)C2=CC=C(C=C2)Cl)N)C3=NC=NC4=C3C=CN4 [Capivasertib] (first compound max 1 µM, 7x7, partner max 3 µM) | -0.072 | -0.0218 | -0.0437 | -0.0366 | -0.0278 | -0.0004 | -0.0177 | -0.0132 | -0.0237 | 0.0076 | -0.0597 | -0.0496 | 0.0141 | -0.0485 | -0.033 | 0.0086 | -0.0679 | -0.0718 | -0.029 | -0.0343
14 | CC1(C)CCC(CN2CCN(c3ccc(C(=O)NS(=O)(=O)c4ccc(NCC5CCOCC5)c([N+](=O)[O-])c4)c(Oc4cnc5[nH]ccc5c4)c3)CC2)=C(c2ccc(Cl)cc2)C1 [Venetoclax] + C=CCn1c(=O)c2cnc(Nc3ccc(N4CCN(C)CC4)cc3)nc2n1-c1cccc(C(C)(C)O)n1 [AZD1775] (first compound max 1 µM, partner max 1 µM) | 0.0589 | 0.0257 | 0.0593 | 0.0732 | -0.0764 | -0.0192 | 0.0136 | -0.0648 | 0.0227 | -0.0227 | -0.0606 | -0.0183 | 0.0685 | -0.0306 | -0.0949 | -0.0002 | 0.0294 | -0.0113 | 0.0339 | -0.107
